Molecules are shown by their SMILES. In brackets after ≈: the same amount, converted by molar mass. Where two headings read alike, the source gives them in different places.

Broadly, the MBC is the smallest concentration meeting the test's criterion for killing. Broadly, the MIC is the smallest concentration in the dilution series that meets the test's criterion for growth inhibition. The minimal effective concentration is the smallest amount tested that counted as effective. A higher minimal effective concentration goes with a need for much substance.

Test [1] has as its system S. epidermidis. Briefly: MIC and MBC, broth microdilution. The following applies: Staphylococcus epidermidis, geometric mean, S. epidermidis (n = 3); for MBC: antibiotics, read-out: MBC; for MIC: read-out: MIC. The class given is cell-based, Staphylococcus epidermidis. The procedure:
Seven clinical isolates of Staphylococcus spp. including 2 S. aureus, 3 S. saprophyticus, and 2 S. epidermidis were used. They were isolated from urine samples in our previous study. Two reference strains (S. aureus ATCC1026 and S. epidermidis ATCC35984) obtained from the American Type Culture Collection were also included. They were kept in the mixture of glycerol and Mueller Hinton Broth (MHB) (1:1) at −20°C, and the activation was achieved using the streak technique on Mueller Hinton agar (MHA) medium.
The MICs of ATBs and NPs were determined by the broth microdilution method as previously described. NPs and ATBs were, respectively, prepared at 4096 µg/mL and 512 µg/mL and serially diluted twofold with MHB in a 96-well microplate at a volume of 100 µL. Then, the wells were filled with 100 µL of inoculum (1.5 × 10^6 CFU/mL) to give final concentrations ranging from 1024 µg/mL to 0.5 µg/mL and 128 µg/mL to 0.062 µg/mL of NPs and ATBs, respectively. The microplates were incubated for 24 h at 37°C. Wells containing only bacterial inoculum were used as the negative control. After incubation, a volume of 40 µL of INT solution (0.2 mg/mL) was added to each well, and the microplate was incubated at 37°C for 30 min. Viable bacteria cells change the yellow dye of INT to a pink color. The MIC was considered as the lowest concentration of the sample at which there was no change in the coloration of the medium, corresponding to the complete inhibition of microbial growth.
All tests were performed in triplicate.

The subject of test [2] is S. aureus biofilm. Briefly: Biofilm inhibition assay (MBIC, MTT). The following applies: Staphylococcus aureus, 24 h; geometric mean, S. aureus (n = 3). The class given is cell-based, Staphylococcus aureus. The procedure:
The biofilm formation inhibitory activity of NPs and ATBs was carried out according to the method previously described. A total of 100 µL of bacterial inoculum (1.5 × 10^6 CFU/mL) was used, and 100 µL of each sample was added to the microplate to achieve final concentrations ranging from 0.25 µg/mL to 128 µg/mL for ATBs and from 8 µg/mL to 1024 µg/mL for NPs. Then, the microplate was incubated at 37°C for 24 h. After incubation, the plates were gently emptied and washed three times with a phosphate buffer solution at pH 7.2. Then, the MTT solution (0.5 mg/mL) prepared in PBS was introduced into each well, and the microplate was further incubated at 37°C for 24 h. Untreated wells containing bacterial suspension and MHB supplemented with 1% glucose were considered positive controls, and wells containing only MHB+1% glucose without bacteria were used as blanks. After incubation, the MTT solution was aspirated, then 150 µL of DMSO was introduced to dissolve the formazan crystal formed by viable bacteria, and the optical density (OD) was measured at 570 nm using a microplate reader (VERSA-max). The percentage of biofilm inhibition was calculated using the formula below, and the minimal biofilm inhibitory concentration (MBIC) was recorded as the lowest concentration of NPs or ATBs that inhibited 100% of biofilm:(1) % biofilm inhibition=ODcontrol−ODblank−ODtest−ODblank/ODcontrol−ODblank×100.

In test [3] the test system is S. epidermidis biofilm. Briefly: Biofilm eradication assay (MBEC, MTT). The following applies: Staphylococcus epidermidis, 24 h; geometric mean, S. epidermidis (n = 3). The class given is cell-based, Staphylococcus epidermidis. The procedure:
The determination of the biofilm eradication potential of NPs and ATBs was performed as previously described. Briefly, 100 µL of bacterial inoculum (1.5 × 10^6 CFU/mL) and 100 µL of MHB + 1% glucose were introduced into the microplate, incubated at 37°C for 24 h, and the microplate was gently emptied and washed three times with PBS. Then, 200 µL of ATBs or NPs at respective concentrations ranging from 8 to 1024 µg/mL and from 16 to 2048 µg/mL were incubated at 37°C for 24 h. Once incubation was completed, the microplate was processed as described above, and the percentage of biofilm eradication was calculated using the formula below. The minimal biofilm eradicating concentration (MBEC) was recorded as the lowest concentration of the test sample that reduces 100% of biofilm:(2) % biofilm eradication=ODcontrol−ODblank−ODtest−ODblank/ODcontrol−ODblank×100.

The test system of test [4] is planktonic cells of Staphylococcus aureus. Briefly: Checkerboard combination assay, planktonic cells. The following applies: Staphylococcus aureus, S. aureus, mean, read-out: MIC alone, ATB. The test is classed as cell-based. The procedure: (§1) The checkerboard assay, as previously described, was used for the determination of the fractional inhibitory concentration index (FICI). Briefly, 50 µL of MHB was distributed into each well of a 96-well microplate. ATBs were serially diluted along the abscissa, and NPs were serially diluted along the ordinate. Then, 100 µL of bacterial inoculum (1.5 × 10^6 CFU/mL) was added to each well and incubated at 37°C for 24 h. The final concentration ranged from 0.125 to 128 µg/mL for ATBs and 4–512 µg/mL for NPs. After incubation, a volume of 40 µL of INT solution (0.2 mg/mL) was added to each well, and the microplate was incubated at 37°C for 30 min. The wells containing bacterial inoculum and MHB were used as a positive control, while wells containing only MHB + 1% glucose were used as a negative control and used as a blank. Viable bacteria cells change the yellow dye of INT to a pink color. The MICs were considered to be the lowest NP concentrations that prevented the color change medium. Subsequently, the FICI was calculated according to the formula FICI = (MIC of the ATBs in combination/MIC of the ATBs alone) + (MIC of a natural substance in combination/MIC of the natural substance alone). FICI values were interpreted as follows: synergy when FICI ≤ 0.5; additive when 0.5 < FICI ≤ 1; indifference when 1 < FICI ≤ 4; and antagonism when FICI > 4.

Test [5] has as its system planktonic cells of Staphylococcus saprophyticus. Nature of the test: Checkerboard combination assay, planktonic cells. The class given is cell-based. The conditions noted are these: Staphylococcus saprophyticus, S. saprophyticus, mean, read-out: MIC alone, ATB. The procedure: as §1
Test [6] has as its system Staphylococcus aureus biofilm. Nature of the test: Checkerboard combination assay, biofilm eradication. The test is classed as cell-based. The method, boiled down: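 Biofilms preformed for 24 h were washed and exposed to antibiotics (0.0625–128 µg/mL) combined with NPs (4–512 µg/mL) for 24 h at 37°C in checkerboard format. Viability was read by MTT reduction to set MBEC, and FICI was calculated for the combination.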

Setting [7] is: S. aureus biofilm eradication, antibiotic alone, mean MBEC.
Setting [8] is: S. aureus, biofilm eradication, mean.

On to `Cc1nnc(SCC2=C(C(=O)O)N3C(=O)[C@@H](NC(=O)Cn4cnnn4)[C@H]3SC2)s1` [Cefazolin, cefazolin], for which, in test [1], the MBC was 139 µg/mL (≈ 305 µM). In addition, the MIC in test [1] stood at 42.7 µg/mL (≈ 93.9 µM); in test [4] (24 h) it was 42.7 µg/mL; in test [4], 42.7 µg/mL; in test [5] (24 h), 64.7 µg/mL; in test [5] it was 64.7 µg/mL. The minimal effective concentration worked out at 4.66 µg/mL in test [2] and 10.7 µg/mL in test [3]. Further, the “MBEC Alone ATB” value in test [6] (setting [7]) and in test [6] (setting [8]) was 42.66 µg/mL each time.
With `C[C@H]1c2cccc(O)c2C(=O)C2=C(O)[C@]3(O)C(=O)C(C(N)=O)=C(O)[C@@H](N(C)C)[C@@H]3[C@@H](O)[C@@H]21` [Doxycycline, doxycycline], in test [1], the MBC turned out to be 8 µg/mL (≈ 18 µM). Further, the MIC was determined as 7 µg/mL (≈ 15.8 µM) in test [1]; 6.16 µg/mL in test [4] (24 h); 6.16 µg/mL in test [4]; 32.2 µg/mL in test [5] (24 h); 32.2 µg/mL in test [5]. The figures for the minimal effective concentration in test [2] and in test [3] were 2.16 µg/mL and 16 µg/mL, respectively. In test [6] (setting [7]), the “MBEC Alone ATB” value was determined as 16 µg/mL.
As to `NCC[C@H](O)C(=O)N[C@@H]1C[C@H](N)[C@@H](O[C@H]2O[C@H](CN)[C@@H](O)[C@H](O)[C@H]2O)[C@H](O)[C@H]1O[C@H]1O[C@H](CO)[C@@H](O)[C@H](N)[C@H]1O` [Amikacin, amikacin], the MBC in test [1] is greater than 128 µg/mL. Moreover, the minimum inhibitory concentration (MIC) is 1.16 µg/mL (≈ 1.98 µM) in test [1]; 4.33 µg/mL in test [4] (24 h); 4.33 µg/mL in test [4]; 22 µg/mL in test [5] (24 h); 22 µg/mL in test [5]. Further, the minimal effective concentration in test [2] stood at 1.83 µg/mL; in test [3], 21.3 µg/mL. Besides, the “MBEC Alone ATB” value in test [6] (setting [7]) and in test [6] (setting [8]) was 13.33 µg/mL in each case.
